# Laboratory results reported in patent US20250129069A1, “TRIAZOLO WRN INHIBITORS” (Nimbus Wadjet, Inc., priority 2023, published 2025).
# Columns and labels:
# [1] = biological target: human Werner helicase (WRN, amino acids 517-1235 with L1074F point mutation) (Homo sapiens (Human), UniProt Q14191, L1074F); test: WRN (BV08) ADP-Glo assay; assay type: biochemical; details: human WRN (aa 517-1235, L1074F), read-out: ADP-Glo_hWRN_IC50
# How it was run: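 Untagged WRN 517-1235 (L1074F), Sf9/baculovirus-expressed, 0.15 nM, preincubated 15 min with compound, then 5 μM ATP and 0.1 nM annealed DNA duplex added; 60 min at 25 °C in Bicine pH 7.5, 1 mM MgCl2, 1% DMSO. ADP-Glo luminescence; % inhibition vs DMSO and 20 μM NSC-617145 controls, four-parameter IC50 fit.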
# [2] = test system: p21 induction in HCT 116 cells; test: p21 induction in cells (In-Cell Western, p21/GAPDH ratio); assay type: cell-based; details: Homo sapiens, 24 h compound incubation, read-out: p21_EC50
# How it was run: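 HCT 116 cells treated 24 h at 37° C with 11-point, 2-fold dilutions typically from 10 μM, in duplicate. Fixed cells co-stained for p21 (800 nm) and GAPDH (700 nm) by In-Cell Western. p21/GAPDH ratio normalised between DMSO and reference WRN inhibitor controls, and EC50 obtained by nonlinear regression.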
# Chain of human Werner helicase (WRN, amino acids 517-1235 with L1074F point mutation) (Q14191 other isoform, or with tags, fused parts or gaps L1074F (already in the parent)): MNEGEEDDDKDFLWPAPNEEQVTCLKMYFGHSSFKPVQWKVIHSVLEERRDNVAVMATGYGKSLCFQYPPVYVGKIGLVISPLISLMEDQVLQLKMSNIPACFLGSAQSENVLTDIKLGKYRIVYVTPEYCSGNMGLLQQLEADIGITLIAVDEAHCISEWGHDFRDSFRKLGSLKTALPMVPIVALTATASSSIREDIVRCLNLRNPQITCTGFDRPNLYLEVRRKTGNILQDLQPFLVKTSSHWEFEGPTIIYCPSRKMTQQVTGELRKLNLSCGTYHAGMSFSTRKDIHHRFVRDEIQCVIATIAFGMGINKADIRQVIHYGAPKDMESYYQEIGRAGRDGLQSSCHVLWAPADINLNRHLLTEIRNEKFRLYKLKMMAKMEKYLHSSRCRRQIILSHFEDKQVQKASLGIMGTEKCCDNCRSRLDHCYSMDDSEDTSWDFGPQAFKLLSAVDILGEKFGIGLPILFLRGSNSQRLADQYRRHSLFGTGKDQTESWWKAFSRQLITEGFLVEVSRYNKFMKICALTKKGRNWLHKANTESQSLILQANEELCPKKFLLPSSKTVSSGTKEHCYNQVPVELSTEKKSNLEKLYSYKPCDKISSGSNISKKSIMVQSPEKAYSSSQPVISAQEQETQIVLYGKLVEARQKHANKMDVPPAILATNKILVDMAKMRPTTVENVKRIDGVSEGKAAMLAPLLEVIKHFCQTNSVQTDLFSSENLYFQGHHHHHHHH
Structure (SMILES),IC50 [1] [nM],EC50 [2] [nM]
"CCc1c(N2CCN(C(=O)c3ncnc(C)c3O)CC2)c(=O)c2nn(-c3ccnc(OC)c3)nc2n1CC(=O)NC12CC(C3CCC3)(C1)C2 [Compound I-140, N-{3-cyclobutylbicyclo[1.1.1]pentan-1-yl}-2-{5-ethyl-6-[4-(5-hydroxy-6-methylpyrimidine-4-carbonyl)piperazin-1-yl]-2-(2-methoxypyridin-4-yl)-7-oxo-2H,4H,7H-[1,2,3]triazolo[4,5-b]pyridin-4-yl}acetamide]",5 to 50,≤ 500
"CCc1c(N2CCN(C(=O)c3ncnc(C)c3O)CC2)c(=O)c2nn(-c3ccncc3)nc2n1CC(=O)NC12CC(C3CCC3)(C1)C2 [Compound I-141, N-{3-cyclobutylbicyclo[1.1.1]pentan-1-yl}-2-{5-ethyl-6-[4-(5-hydroxy-6-methylpyrimidine-4-carbonyl)piperazin-1-yl]-7-oxo-2-(pyridin-4-yl)-2H,4H,7H-[1,2,3]triazolo[4,5-b]pyridin-4-yl}acetamide]",5 to 50,500 to 2000
"CCc1c(N2CCN(C(=O)c3c(O)ccc4ncoc34)CC2)c(=O)c2nn(-c3ccnc(OC)c3)nc2n1CC(=O)NC12CC(CC)(C1)C2 [Compound I-142, 2-{5-ethyl-6-[4-(6-hydroxy-1,3-benzoxazole-7-carbonyl)piperazin-1-yl]-2-(2-methoxypyridin-4-yl)-7-oxo-2H,4H,7H-[1,2,3]triazolo[4,5-b]pyridin-4-yl}-N-{3-ethylbicyclo[1.1.1]pentan-1-yl}acetamide]",5 to 50,≤ 500
"CCc1c(N2CCN(C(=O)c3c(O)ccnc3OC)CC2)c(=O)c2nn(-c3ccnc(OC)c3)nc2n1CC(=O)NC12CC(C(F)(F)F)(C1)C2 [Compound I-143, 2-{5-ethyl-6-[4-(4-hydroxy-2-methoxypyridine-3-carbonyl)piperazin-1-yl]-2-(2-methoxypyridin-4-yl)-7-oxo-2H,4H,7H-[1,2,3]triazolo[4,5-b]pyridin-4-yl}-N-[3-(trifluoromethyl)bicyclo[1.1.1]pentan-1-yl]acetamide]",5 to 50,500 to 2000
"CCc1c(N2CCN(C(=O)c3ncnc(C)c3O)CC2)c(=O)c2nn(C3=CCOCC3)nc2n1CC(=O)Nc1ccc(C(F)(F)F)cc1Cl [Compound I-144, N-[2-chloro-4-(trifluoromethyl)phenyl]-2-[2-(3,6-dihydro-2H-pyran-4-yl)-5-ethyl-6-[4-(5-hydroxy-6-methylpyrimidine-4-carbonyl)piperazin-1-yl]-7-oxo-2H,4H,7H-[1,2,3]triazolo[4,5-b]pyridin-4-yl]acetamide]",5 to 50,≤ 500
"CCc1c(N2CCN(C(=O)c3c(O)ccc4ncoc34)[C@H]3CC[C@@H]32)c(=O)c2nn(-c3ccnc(OC)c3)nc2n1CC(=O)NC12CC(C(F)(F)F)(C1)C2 [Compound I-148, 2-{5-ethyl-6-[(1S,6S)-5-(6-hydroxy-1,3-benzoxazole-7-carbonyl)-2,5-diazabicyclo[4.2.0]octan-2-yl]-2-(2-methoxypyridin-4-yl)-7-oxo-2H,4H,7H-[1,2,3]triazolo[4,5-b]pyridin-4-yl}-N-[3-(trifluoromethyl)bicyclo[1.1.1]pentan-1-yl]acetamide]",5 to 50,≤ 500
"CCc1c(N2CCN(C(=O)c3c(O)ccc4ncoc34)CC2)c(=O)c2nn(-c3ccnc(OC)c3)nc2n1CC(=O)NC12CC(C(F)(F)F)(C1)C2 [Compound I-150, 2-{5-ethyl-6-[4-(6-hydroxy-1,3-benzoxazole-7-carbonyl)piperazin-1-yl]-2-(2-methoxypyridin-4-yl)-7-oxo-2H,4H,7H-[1,2,3]triazolo[4,5-b]pyridin-4-yl}-N-[3-(trifluoromethyl)bicyclo[1.1.1]pentan-1-yl]acetamide]",5 to 50,≤ 500
"CCc1c(N2CCN(C(=O)c3ncnc(C)c3O)CC2)c(=O)c2nn(-c3ccnc(OC)c3)nc2n1CC(=O)NC12CC(C(F)(F)F)(C1)C2 [Compound I-151, 2-{5-ethyl-6-[4-(5-hydroxy-6-methylpyrimidine-4-carbonyl)piperazin-1-yl]-2-(2-methoxypyridin-4-yl)-7-oxo-2H,4H,7H-[1,2,3]triazolo[4,5-b]pyridin-4-yl}-N-[3-(trifluoromethyl)bicyclo[1.1.1]pentan-1-yl]acetamide]",5 to 50,500 to 2000
"CCc1c(N2CCN(C(=O)c3ncnc(C)c3O)[C@H]3CC[C@@H]32)c(=O)c2nn(C3=CCOCC3)nc2n1CC(=O)Nc1ccc(C(F)F)cc1F [Compound I-154, N-[4-(difluoromethyl)-2-fluorophenyl]-2-[2-(3,6-dihydro-2H-pyran-4-yl)-5-ethyl-6-[(1S,6S)-5-(5-hydroxy-6-methylpyrimidine-4-carbonyl)-2,5-diazabicyclo[4.2.0]octan-2-yl]-7-oxo-2H,4H,7H-[1,2,3]triazolo[4,5-b]pyridin-4-yl]acetamide]",5 to 50,≤ 500
"CCc1c(N2CCN(C(=O)c3ncnc(C)c3O)[C@H]3CC[C@@H]32)c(=O)c2nn(-c3ccc(OC)nc3)nc2n1CC(=O)NC12CC(C(C)C)(C1)C2 [Compound I-156, 2-{5-ethyl-6-[(1S,6S)-5-(5-hydroxy-6-methylpyrimidine-4-carbonyl)-2,5-diazabicyclo[4.2.0]octan-2-yl]-2-(6-methoxypyridin-3-yl)-7-oxo-2H,4H,7H-[1,2,3]triazolo[4,5-b]pyridin-4-yl}-N-[3-(propan-2-yl)bicyclo[1.1.1]pentan-1-yl]acetamide]",5 to 50,≤ 500

# Results, then the compound that gave them:
IC50 [1] [nM],EC50 [2] [nM],Structure (SMILES)
≤ 5,≤ 500,"CCc1c(N2CCN(C(=O)c3c(O)ccc4ncoc34)[C@H]3CC[C@@H]32)c(=O)c2nn(-c3ccnc(OC)c3)nc2n1CC(=O)NC12CC(C(C)C)(C1)C2 [Compound I-137, 2-{5-ethyl-6-[(1S,6S)-5-(6-hydroxy-1,3-benzoxazole-7-carbonyl)-2,5-diazabicyclo[4.2.0]octan-2-yl]-2-(2-methoxypyridin-4-yl)-7-oxo-2H,4H,7H-[1,2,3]triazolo[4,5-b]pyridin-4-yl}-N-[3-(propan-2-yl)bicyclo[1.1.1]pentan-1-yl]acetamide]"
5 to 50,500 to 2000,"CCc1c(N2CCN(C(=O)c3ncnc(C)c3O)CC2)c(=O)c2nn(-c3ccncc3)nc2n1CC(=O)NC12CC(CC)(C1)C2 [Compound I-138, 2-{5-ethyl-6-[4-(5-hydroxy-6-methylpyrimidine-4-carbonyl)piperazin-1-yl]-7-oxo-2-(pyridin-4-yl)-2H,4H,7H-[1,2,3]triazolo[4,5-b]pyridin-4-yl}-N-{3-ethylbicyclo[1.1.1]pentan-1-yl}acetamide]"
≤ 5,≤ 500,"CCc1c(N2CCN(C(=O)c3c(O)ccc4ncoc34)CC2)c(=O)c2nn(C(C)C)nc2n1CC(=O)Nc1ccc(C(F)(F)F)cc1Cl [Compound I-139, N-[2-chloro-4-(trifluoromethyl)phenyl]-2-{5-ethyl-6-[4-(6-hydroxy-1,3-benzoxazole-7-carbonyl)piperazin-1-yl]-7-oxo-2-(propan-2-yl)-2H,4H,7H-[1,2,3]triazolo[4,5-b]pyridin-4-yl}acetamide]"
≤ 5,≤ 500,"CCc1c(N2CCN(C(=O)c3ncnc(C)c3O)CC2)c(=O)c2nn(-c3ccncc3)nc2n1CC(=O)Nc1ccc(C(F)(F)F)cc1Cl [Compound I-147, N-[2-chloro-4-(trifluoromethyl)phenyl]-2-{5-ethyl-6-[4-(5-hydroxy-6-methylpyrimidine-4-carbonyl)piperazin-1-yl]-7-oxo-2-(pyridin-4-yl)-2H,4H,7H-[1,2,3]triazolo[4,5-b]pyridin-4-yl}acetamide]"
≤ 5,≤ 500,"CCc1c(N2CCN(C(=O)c3ncnc(C)c3O)CC2)c(=O)c2nn(-c3ccnc(OC)c3)nc2n1CC(=O)Nc1ccc(C(F)(F)F)cc1Cl [Compound I-149, N-[2-chloro-4-(trifluoromethyl)phenyl]-2-{5-ethyl-6-[4-(5-hydroxy-6-methylpyrimidine-4-carbonyl)piperazin-1-yl]-2-(2-methoxypyridin-4-yl)-7-oxo-2H,4H,7H-[1,2,3]triazolo[4,5-b]pyridin-4-yl}acetamide]"
≤ 5,≤ 500,"CCc1c(N2CCN(C(=O)c3ncc4c(c3O)CCO4)CC2)c(=O)c2nn(-c3ccnc(OC)c3)nc2n1CC(=O)Nc1ccc(C(F)(F)F)cc1Cl [Compound I-152, N-[2-chloro-4-(trifluoromethyl)phenyl]-2-[5-ethyl-6-(4-{4-hydroxy-2H,3H-furo[2,3-c]pyridine-5-carbonyl}piperazin-1-yl)-2-(2-methoxypyridin-4-yl)-7-oxo-2H,4H,7H-[1,2,3]triazolo[4,5-b]pyridin-4-yl]acetamide]"
≤ 5,≤ 500,"CCc1c(N2CCN(C(=O)c3ncnc(C)c3O)[C@H]3CC[C@@H]32)c(=O)c2nn(C3CC3)nc2n1CC(=O)Nc1ccc(C(F)(F)F)cc1Cl [Compound I-153, N-[2-chloro-4-(trifluoromethyl)phenyl]-2-{2-cyclopropyl-5-ethyl-6-[(1S,6S)-5-(5-hydroxy-6-methylpyrimidine-4-carbonyl)-2,5-diazabicyclo[4.2.0]octan-2-yl]-7-oxo-2H,4H,7H-[1,2,3]triazolo[4,5-b]pyridin-4-yl}acetamide]"
≤ 5,≤ 500,"CCc1c(N2CCN(C(=O)c3ncnc(C)c3O)[C@H]3CC[C@@H]32)c(=O)c2nn(-c3ccc(OC)cc3)nc2n1CC(=O)NC12CC(C(C)C)(C1)C2 [Compound I-155, 2-{5-ethyl-6-[(1S,6S)-5-(5-hydroxy-6-methylpyrimidine-4-carbonyl)-2,5-diazabicyclo[4.2.0]octan-2-yl]-2-(4-methoxyphenyl)-7-oxo-2H,4H,7H-[1,2,3]triazolo[4,5-b]pyridin-4-yl}-N-[3-(propan-2-yl)bicyclo[1.1.1]pentan-1-yl]acetamide]"
